In experiment [1] the target is T1, Fucose-binding lectin PA-IIL (Pseudomonas aeruginosa (strain ATCC 15692 / DSM 22644 / CIP 104116 / JCM14847 / LMG 12228 / 1C / PRS 101 / PAO1), UniProt Q9HYN5). Kind of experiment: Inhibition of biotinylated polymeric fucose binding to Pseudomonas aeruginosa LecB expressed in Escherichia coli BL21(DE3) preincubated for 1 hr followed by biotinylated polymeric fucose addition and measured after 1 hr.
Target sequence in this assay (Q9HYN5 whole entry): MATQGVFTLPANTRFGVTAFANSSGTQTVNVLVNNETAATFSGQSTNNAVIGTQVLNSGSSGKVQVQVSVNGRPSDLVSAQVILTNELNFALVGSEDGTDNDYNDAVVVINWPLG

The subject of experiment [2] is Pseudomonas aeruginosa. As to the kind of experiment: Antibiofilm activity against Pseudomonas aeruginosa. The class given is functional, organism-based.
Experiment [3] has as its system Staphylococcus aureus. As to the kind of experiment: Antibiofilm activity against methicillin-resistant Staphylococcus aureus. The experiment is classed as functional, organism-based.
The subject of experiment [4] is Enterococcus faecalis. As to the kind of experiment: Antibiofilm activity against Enterococcus faecalis. The class given is functional.
The test system of experiment [5] is Staphylococcus aureus. As to the kind of experiment: Antibiofilm activity against methicillin-resistant Staphylococcus aureus ATCC BAA-44. The class given is functional, organism-based.
Experiment [6] relates to Staphylococcus aureus. Kind of experiment: Antibiofilm activity against methicillin-resistant Staphylococcus aureus ATCC BAA-44 preformed biofilms assessed as reduction in biofilm dispersion. The experiment is classed as functional, organism-based.
Experiment [7] concerns the target T2, Sortase A (Staphylococcus aureus, UniProt Q9S446).
T2 sequence (Q9S446 whole entry): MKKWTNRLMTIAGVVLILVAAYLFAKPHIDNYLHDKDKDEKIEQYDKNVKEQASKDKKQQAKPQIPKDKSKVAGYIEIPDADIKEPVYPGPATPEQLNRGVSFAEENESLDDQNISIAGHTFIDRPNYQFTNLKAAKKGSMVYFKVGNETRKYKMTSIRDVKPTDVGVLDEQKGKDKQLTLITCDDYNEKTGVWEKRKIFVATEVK
Kind of experiment: Inhibition of Staphylococcus aureus SrtA.

Experiment [8] deals with Staphylococcus aureus. As to the kind of experiment: Antibiofilm activity against Staphylococcus aureus ATCC 6538. The class given is functional, organism-based.
The test system of experiment [9] is Staphylococcus aureus. As to the kind of experiment: Antibiofilm activity against Staphylococcus aureus ATCC 29213 at 25 ug/ml relative to control. The experiment is classed as functional.
The test system of experiment [10] is Staphylococcus epidermidis. As to the kind of experiment: Antibiofilm activity against Staphylococcus epidermidis at 25 ug/ml relative to control. The class given is functional.
Experiment [11] relates to Staphylococcus aureus. Kind of experiment: Antibiofilm activity against Staphylococcus aureus ATCC 29213 at 6.2 ug/ml relative to control. The experiment is classed as functional.
The test system of experiment [12] is Staphylococcus aureus. As to the kind of experiment: Synergistic antibacterial activity against methicillin-resistant Staphylococcus aureus assessed as fold reduction in oxacillin MIC. The class given is functional.
In experiment [13] the test system is Staphylococcus aureus. Kind of experiment: Synergistic antibacterial activity against methicillin-resistant Staphylococcus aureus assessed as fold reduction in penicillin G MIC. The experiment is classed as functional.
Experiment [14] deals with Staphylococcus epidermidis. As to the kind of experiment: Antibiofilm activity against Staphylococcus epidermidis. The experiment is classed as functional.
In experiment [15] the test system is Staphylococcus aureus. Kind of experiment: Antibiofilm activity against methicillin-resistant Staphylococcus aureus isolate 2. The experiment is classed as functional.
The subject of experiment [16] is Staphylococcus aureus. Kind of experiment: Antibiofilm activity against methicillin-resistant Staphylococcus aureus BAA-1707. The experiment is classed as functional.
Experiment [17] relates to Enterococcus. Kind of experiment: Antibiofilm activity against vancomycin-resistant Enterococcus. The class given is functional.
Experiment [18] has as its system Vibrio cholerae. Kind of experiment: Antibiofilm activity against Vibrio cholerae. The experiment is classed as functional, organism-based.
Experiment [19] has as its system Vibrio cholerae. As to the kind of experiment: Antibiofilm activity against Vibrio cholerae assessed as inhibition of biofilm dispersion. The class given is functional, organism-based.
Experiment [20] has as its system Enterococcus faecium. As to the kind of experiment: Antibiofilm activity against Enterococcus faecium. The class given is functional.
Experiment [21] has as its system Acinetobacter baumannii. As to the kind of experiment: Antibiofilm activity against Acinetobacter baumannii. The class given is functional, organism-based.
Experiment [22] has as its system Staphylococcus aureus. As to the kind of experiment: Antibiofilm activity against methicillin-resistant Staphylococcus aureus BAA-1770. The experiment is classed as functional, organism-based.
The test system of experiment [23] is Staphylococcus aureus. As to the kind of experiment: Antibiofilm activity against methicillin-resistant Staphylococcus aureus BAA-1685. The experiment is classed as functional, organism-based.
Experiment [24] relates to Staphylococcus aureus. Kind of experiment: Antibiofilm activity against methicillin-resistant Staphylococcus aureus ATCC 43300. The experiment is classed as functional, organism-based.
Experiment [25] concerns the target T1, Fucose-binding lectin PA-IIL. As to the kind of experiment: Inhibition of N-(Fluorescein-5-yl)-N'-(alpha-L-fucopyranosyl ethylen)thiocarbamide binding to Pseudomonas aeruginosa PA14 LecB after 22 to 24 hrs by fluorescence polarization assay. Background: In fluorescence polarisation assays a small probe gives low polarisation when free and higher when bound to something large.
Target sequence in this assay (Q9HYN5 1-115): as the sequence (Q9HYN5 whole entry) above

Experiment [26] has as its system Pseudomonas aeruginosa. As to the kind of experiment: Antibiofilm activity against Pseudomonas aeruginosa PAO1. The experiment is classed as functional, organism-based.
Experiment [27] has as its system Pseudomonas aeruginosa. As to the kind of experiment: Antibiofilm activity against Pseudomonas aeruginosa PA14. The experiment is classed as functional, organism-based.
Experiment [28] deals with Pseudomonas aeruginosa. Kind of experiment: Antibiofilm activity against Pseudomonas aeruginosa PA14 assessed as inhibition of biofilm dispersion. The class given is functional, organism-based.
Experiment [29] concerns Pseudomonas aeruginosa. Kind of experiment: Antibiofilm activity against Pseudomonas aeruginosa PAO1 assessed as inhibition of biofilm dispersion. The class given is functional, organism-based.

pIC50: −log10 of the molar value. Positions of bridges follow the written chain, without caps; N, C: chain ends. Residues, ends and D or L forms follow the SMILES beside them. Groups on a side chain read outwards from the residue. Chains are numbered I, II in the order given. *: point of attachment. Acetyl(C-α-L-Fucp) = C[C@@H]1O[C@@H](CC(=O)*)[C@@H](O)[C@H](O)[C@@H]1O

In general, pIC50 refers to the IC50 on a negative log10 scale, so that one unit is a factor of ten. For the compound `CC[C@H](C)[C@H](NC(=O)[C@H](Cc1cnc[nH]1)NC(=O)[C@H](CCCCNC(=O)[C@@H](NC(=O)[C@H](CCCCN)NC(=O)[C@H](Cc1ccccc1)NC(=O)[C@H](CCCCNC(=O)[C@H](CC(C)C)NC(=O)[C@@H]1CCCN1C(=O)[C@H](CCCCN)NC(=O)C[C@@H]1O[C@@H](C)[C@@H](O)[C@@H](O)[C@@H]1O)NC(=O)[C@H](CC(C)C)NC(=O)[C@@H]1CCCN1C(=O)[C@H](CCCCN)NC(=O)C[C@@H]1O[C@@H](C)[C@@H](O)[C@@H](O)[C@@H]1O)[C@@H](C)CC)NC(=O)[C@@H](NC(=O)[C@H](CCCCN)NC(=O)[C@H](Cc1ccccc1)NC(=O)[C@H](CCCCNC(=O)[C@H](CC(C)C)NC(=O)[C@@H]1CCCN1C(=O)[C@H](CCCCN)NC(=O)C[C@@H]1O[C@@H](C)[C@@H](O)[C@@H](O)[C@@H]1O)NC(=O)[C@H](CC(C)C)NC(=O)[C@@H]1CCCN1C(=O)[C@H](CCCCN)NC(=O)C[C@@H]1O[C@@H](C)[C@@H](O)[C@@H](O)[C@@H]1O)[C@@H](C)CC)C(N)=O` (I: {Acetyl(C-α-L-Fucp)}-KPLK([Leu-Pro-Lys-Acetyl(C-α-L-Fucp)])FKIKHI-NH2 / II: {Acetyl(C-α-L-Fucp)}-KPLK([Leu-Pro-Lys-Acetyl(C-α-L-Fucp)])FKI; amide I:8-II:C), the pIC50 in [1] is 6.85; in experiment [2], 5.00.

As to `CCCCCCCCCCCC[N+](C)(C)CCNCC[N+](C)(C)CCCCCCCCCCCC`, the MBEC in experiment [3] worked out at 50 µM; in experiment [4], 25 µM.

Turning to `CCCCC(Cl)(Cl)C1NC(=O)/C(=C/c2ccc(C(F)(F)F)cc2)O1` (configuration not stated), the negative logarithm of the IC50 (pIC50) in experiment [5] was 6.11; in experiment [6], 5.33.

As for `CCOC(=O)/C(=N/Nc1c(F)cccc1F)C(=O)c1cc(C)nn1CC`, the pIC50 in experiment [7] was 4.12; in experiment [8] it was 6.05.

In the case of `Cc1nn(C)c([N-]C(=O)c2ccc([N+](=O)[O-])cc2)c1[N+]#N`, the results for the Activity in [9], in experiment [10] and in experiment [11] were 69 - 96%, 69 - 96% and 86.5%, respectively.

Usually IC50 stands for the concentration that inhibits the measured activity by half. A lower IC50 goes with higher potency. The compound `CCCCCc1cccc(C(=O)NCCNC(=O)CCCCCc2cnc(N)[nH]2)c1` had an IC50 in [3] (Staphylococcus aureus) of 6.5 µg/mL. Further, the figures for the “fold change (FC)” value in [12] and in experiment [13] were 64 and 16, respectively.

In the case of `Oc1c(Br)cc(Br)c2ccc(CNc3ccc(F)cc3)nc12`, the MBEC turned out to be 5.9 µM in [14], 93.8 µM in experiment [15], 7.8 µM in experiment [16] and 1 µM in experiment [17].

In [18], `O[C@H](c1cc(-c2cccc(S(F)(F)(F)(F)F)c2)nc2ccccc12)[C@@H]1CCCN1` gave a negative logarithm of the IC50 (pIC50) of 5.36. In [19], the DC50 amounted to 7.4 µM.

As to `CCc1cccc2nc3c(O)c(Br)cc(Br)c3nc12`, the MBEC in [14] is 2.35 µM; in experiment [20], 0.59 µM.

Take `CCCCCc1ccc(C(=O)NCCn2cc(CCCCCc3c[nH]c(N)n3)nn2)cc1`: the pIC50 in experiment [3] (Staphylococcus aureus) and in [21] was 4.47 to 4.82 each time.

As for `CCCCCc1ccc(C(=O)NCCn2cc(CCCCCc3c[nH]c(NCc4ccc(CCCC)cc4)n3)nn2)cc1`, the results for the negative-log IC50 (pIC50) in experiment [22], in [23] and in experiment [24] were 5.23, 5.26 and 5.36, respectively.

With `Cc1cc(C)c(S(=O)(=O)NC[C@H]2O[C@@H](C)[C@@H](O)[C@@H](O)[C@@H]2O)c(C)c1`, the negative logarithm of the IC50 (pIC50) in experiment [25] is 6.47.

Consider `CCCCCCCCCCCCNC(=O)CCCc1c[nH]c(N)n1`, for which the negative-log IC50 (pIC50) in experiment [26] was 5.55; in experiment [27], 5.65; in [28], 5.65; in experiment [29], 5.55.

Values taken from ChEMBL document CHEMBL4325854, “Synthetic small molecules as anti-biofilm agents in the struggle against antibiotic resistance” (Eur J Med Chem, 2019).
